Source: patent publication US20250197428A1, “INHIBITORS OF KIF18A AND USES THEREOF” (ACCENT THERAPEUTICS, INC., priority 2022, published 2025)
Where two headings read alike, the source gives them in different places.

Experiments:
OVCAR-3 cells = assay: In vitro anti-proliferative activity assay in cancer cell line OVCAR-3 (CellTiter-Glo, 4- or 7-day); assay type: cell-based; details: Homo sapiens, read-out: OVCAR-3 cellular antiproliferation assay IC50
[1] = Caco-2 permeation assay, bidirectional permeability; assay type: in vitro ADME; details: human, Caco-2, pH 7.4, 5 μM, Papp(B-A)/Papp(A-B)
Method: 1. Caco-2 Permeation Assay: Evaluation of the Bidirectional Permeabilities of Compounds.
Samples were analyzed through LC/MS/MS for estimating the apparent permeability coefficients (Papp) of compounds across Caco-2 cell monolayers. Caco-2 cells (American Type Culture Collection) were incubated and seeded onto HTS Transwell-96 Well Permeable Supports (Corning Corporation) for 14 days using a cell medium consisting of Dulbecco's Modified Eagle's Medium (DMEM) with high glucose and L-glutamine supplemented with 10% FBS, 1× penicillin-streptomycin mixture and 1×non-essential amino acids (NEAA). Cell monolayer integrity was measured using an automated tissue resistance measuring system (World Precision Instruments). Stock solutions of compounds and control compounds in DMSO were diluted with HBSS (10 mM HEPES, pH 7.4) to reach a final concentration of 5 μM with a final concentration of DMSO <0.1%. HBSS was then removed after 30 minutes of preincubation, and 75 μL of test compound was added to the apical compartment of the Transwell insert. The basolateral compartment was filled with 235 μL of HBSS (10 mM HEPES, pH 7.4) containing 2% BSA. Rate of drug transport in the basolateral to apical direction was obtained by adding 235 μL of test compound to the receiver plate wells (basolateral compartment) and filling with 75 μL of HBSS (10 mM HEPES, pH 7.4) containing 2% BSA. Time 0 samples were prepared by transferring 25 μL of 5 μM working solution to wells of the 96-deepwell plate containing 25 μL HBSS (10 mM HEPES and 2% BSA, pH 7.4), followed by the addition 200 μL of cold methanol containing appropriate internal standards (100 nM alprazolam, 200 nM labetalol, 200 nM caffeine and 200 nM diclofenac). After incubating at 37° C. for 2 h, 25 μL samples from donor sides (apical compartment) were transferred to a 96-well plate containing 25 μL HBSS (10 mM HEPES and 2% BSA, pH 7.4). 25 μL samples from receiver sides (basolateral compartment) were removed and transferred to a new plate containing 25 μL HBSS (10 mM HEPES, pH 7.4). 200 μL of cold methanol containing internal standards (100 nM alprazolam, 200 nM labetalol, 200 nM caffeine and 200 nM diclofenac) was added to terminate the reaction. Samples were vortexed for 5 minutes and then centrifuged at 3,220 g for 40 minutes. An aliquot of 100 μL of the supernatant is mixed with 100 μL of ultra-pure water for LC-MS/MS analysis. All incubations are performed in duplicate. Solutions were discarded from the transwell plate. 100 μL Lucifer Yellow solution (100 μM in HBSS) was added to each well of transwell insert and 300 μL of HBSS to each well of receiver. After incubating at 37° C. for 30 minutes, 80 μL was aliquotted from each well of apical and basolateral sides to a solid black plate. The plate was then read with Tecan Infinite™ M 200 (Excitation/Emission wavelength […]).
All calculations were carried out using Microsoft Excel. Peak areas were determined from extracted ion chromatograms. The leakage of Lucifer Yellow, in unit of percentage (%), can be calculated using the following equation: […]
LY leakage of <1% is acceptable to indicate the well-qualified Caco-2 monolayers. The apparent permeability coefficient (Papp), in units of centimeter per second, can be calculated for Caco-2 drug transport assays using the following equation: […]
Where VA is the volume (in mL) in the receiver well (0.235 mL for Ap→Bl flux and 0.075 mL for Bl→Ap flux), Area is the surface area of the membrane (0.143 cm^2 for HTS Transwell-96 Well Permeable Supports), and time is the total transport time in seconds. The efflux ratio can be determined using the following equation: […]
Where Papp (B-A) indicates the apparent permeability coefficient in basolateral to apical direction, and Papp (A-B) indicates the apparent permeability coefficient in apical to basolateral direction.
The recovery can be determined using the following equation: […]

KIF18A = KIF18A (Homo sapiens (Human), UniProt Q8NI77); assay: KIF18A Biochemical Assay (ATPase, ADP-Glo)
Sequence of KIF18A (Q8NI77 1-367): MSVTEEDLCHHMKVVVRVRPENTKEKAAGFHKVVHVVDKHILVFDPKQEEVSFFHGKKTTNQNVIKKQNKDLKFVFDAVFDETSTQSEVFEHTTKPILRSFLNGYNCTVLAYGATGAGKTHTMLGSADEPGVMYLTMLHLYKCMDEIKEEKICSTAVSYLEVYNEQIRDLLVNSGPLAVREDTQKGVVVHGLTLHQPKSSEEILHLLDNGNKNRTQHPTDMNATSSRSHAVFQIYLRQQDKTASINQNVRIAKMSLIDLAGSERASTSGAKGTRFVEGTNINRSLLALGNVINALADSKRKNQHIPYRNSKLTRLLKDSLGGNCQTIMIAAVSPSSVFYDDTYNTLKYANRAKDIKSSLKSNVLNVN
Sequence of KIF18A (P02550 whole entry partner): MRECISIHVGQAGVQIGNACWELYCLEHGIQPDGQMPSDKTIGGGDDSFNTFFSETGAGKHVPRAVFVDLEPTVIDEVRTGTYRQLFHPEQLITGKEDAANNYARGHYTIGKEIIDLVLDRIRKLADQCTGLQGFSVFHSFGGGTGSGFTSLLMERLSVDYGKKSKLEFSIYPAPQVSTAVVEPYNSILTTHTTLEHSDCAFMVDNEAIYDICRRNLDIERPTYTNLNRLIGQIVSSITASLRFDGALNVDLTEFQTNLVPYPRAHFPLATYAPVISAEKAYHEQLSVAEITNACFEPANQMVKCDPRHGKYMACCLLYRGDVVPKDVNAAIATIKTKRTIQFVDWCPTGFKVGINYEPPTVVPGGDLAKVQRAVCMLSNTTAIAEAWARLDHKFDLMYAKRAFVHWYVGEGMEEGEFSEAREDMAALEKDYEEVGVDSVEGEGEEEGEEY
Sequence of KIF18A (P02554 whole entry partner): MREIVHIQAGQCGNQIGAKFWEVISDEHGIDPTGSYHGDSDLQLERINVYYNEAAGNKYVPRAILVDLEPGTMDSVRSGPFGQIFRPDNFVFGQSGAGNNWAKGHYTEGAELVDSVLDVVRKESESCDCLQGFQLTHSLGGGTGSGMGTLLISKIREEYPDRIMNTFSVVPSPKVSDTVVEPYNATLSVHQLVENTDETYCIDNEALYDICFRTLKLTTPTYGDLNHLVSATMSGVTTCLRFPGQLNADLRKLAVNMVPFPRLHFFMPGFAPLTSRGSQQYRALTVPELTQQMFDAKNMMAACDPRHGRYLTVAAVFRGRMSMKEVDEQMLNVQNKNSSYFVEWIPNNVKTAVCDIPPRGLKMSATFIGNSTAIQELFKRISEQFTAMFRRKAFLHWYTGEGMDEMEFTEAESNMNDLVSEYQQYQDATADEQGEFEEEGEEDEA

SMILES	IC50 (OVCAR-3 cells; OVCAR-3, 168 h, 7-day assay)	efflux ratio at 2 h, 5 μM [1]	IC50 (KIF18A)	IC50 (OVCAR-3 cells; OVCAR-3, 96 h, 4-day assay)
O=C(Nc1ccnc(N2CCC(F)(F)CC2)n1)c1ccc(NS(=O)(=O)CCO)cc1N1CC[C@]2(C(F)F)C[C@@H]2C1 [Example 60]	< 100 nM	≥ 10	< 100 nM	–
Cc1ccc(NC(=O)c2ccc(NS(=O)(=O)CCO)cc2N2CC[Si](C)(C)CC2)nc1N1CCOCC1 [Example 2, 2-(4,4-dimethyl-1,4-azasilinan-1-yl)-4-((2-hydroxyethyl)sulfonamido)-N-(5-methyl-6-morpholinopyridin-2-yl)benzamide]	–	< 10	< 100 nM	< 100 nM
CC(C)(C)NS(=O)(=O)c1cccc(NC(=O)c2ccc(NS(=O)(=O)CCO)cc2N2CC[Si](C)(C)CC2)n1 [Example 98]	–	< 10	< 100 nM	< 100 nM
O=C(Nc1ccnc(N2CCC(F)(F)CC2)n1)c1cc2cnn(CCO)c2cc1N1CCC2(CC1)CC2 [Example 12]	–	< 10	500 to 1000 nM	> 1000 nM
C[Si]1(C)CCN(c2cc(NS(=O)(=O)CCO)ccc2C(=O)Nc2ccnc(N3CCC(F)(F)CC3)c2)CC1 [Example 7, N-(2-(4,4-difluoropiperidin-1-yl)pyridin-4-yl)-2-(4,4-dimethyl-1,4-azasilinan-1-yl)-4-((2-hydroxyethyl)sulfonamido)benzamide]	–	≥ 10	< 100 nM	< 100 nM
CC(=O)NCCS(=O)(=O)Nc1ccc(C(=O)Nc2cccc(N3CCC(F)(F)CC3)n2)c(N2CC[Si](C)(C)CC2)c1 [Example 104]	100 to 500 nM	< 10	< 100 nM	–
Cc1cc(NC(=O)c2ccc(NS(=O)(=O)CCO)cc2N2CC[Si](C)(C)CC2)nc(N2CCOCC2)c1 [Example 5, 2-(4,4-dimethyl-1,4-azasilinan-1-yl)-4-((2-hydroxyethyl)sulfonamido)-N-(4-methyl-6-morpholinopyridin-2-yl)benzamide]	–	< 10	< 100 nM	< 100 nM
O=C(Nc1ccnc(C2CCC(F)(F)CC2)n1)c1ccc(NS(=O)(=O)CCO)cc1N1CC[C@]2(C(F)F)C[C@@H]2C1 [Example 75]	< 100 nM	< 10	< 100 nM	–
Cc1cc(NC(=O)c2ccc(NS(C)(=O)=O)cc2N2CC[Si](C)(C)CC2)nc(N2CC(F)(F)C2)c1 [Example 20]	–	< 10	100 to 500 nM	100 to 500 nM
Cc1cc(NC(=O)c2ccc(NS(=O)(=O)CCO)cc2N2CC[Si](C)(C)CC2)nc(N2CCOC(F)(F)C2)n1 [Example 115]	100 to 500 nM	≥ 10	< 100 nM	–
Cc1cc(NC(=O)c2ccc(NS(C)(=O)=O)cc2N2CC[C@]3(C(F)F)C[C@@H]3C2)nc(N2CCC(F)(F)CC2)n1 [Example 54]	100 to 500 nM	< 10	< 100 nM	–
Cc1cc(NC(=O)c2ccc(NS(=O)(=O)CCO)cc2N2CCC3(C)CC3C2)nc(N2CCC(F)(F)CC2)n1 (stereo not drawn) [Example 37]	–	< 10	< 100 nM	< 100 nM
Cc1cc(NC(=O)c2ccc(NS(=O)(=O)CCO)cc2N2CCC3CC3C2)nc(N2CCC(F)(F)CC2)n1 (stereo not drawn) [Example 34]	–	≥ 10	< 100 nM	100 to 500 nM
Cc1cc(NC(=O)c2ccc(S(=O)(=O)NCCO)cc2N2CC[C@@]3(C(F)F)C[C@H]3C2)nc(N2CCC(F)(F)CC2)n1 [Example 78]	100 to 500 nM	< 10	< 100 nM	–
C[Si]1(C)CCN(c2cc(NS(=O)(=O)CCO)ccc2C(=O)Nc2cccc(N3CCC(F)(F)CC3)c2)CC1 [Example 6, N-(3-(4,4-difluoropiperidin-1-yl)phenyl)-2-(4,4-dimethyl-1,4-azasilinan-1-yl)-4-((2-hydroxyethyl)sulfonamido)benzamide]	–	< 10	< 100 nM	< 100 nM
Cc1cc(NC(=O)c2ccc(NS(=O)(=O)N(C)CCO)cc2N2CC[Si](C)(C)CC2)nc(N2CCC(F)(F)CC2)n1 [Example 134]	100 to 500 nM	< 10	< 100 nM	–
O=C(Nc1cccc(N2CCC(F)(F)CC2)n1)c1c(F)cc(NS(=O)(=O)CCO)cc1N1CC[C@@]2(C(F)F)C[C@H]2C1 [Example 84]	100 to 500 nM	< 10	< 100 nM	–
C[Si]1(C)CCN(c2cc(NS(C)(=O)=O)ccc2C(=O)Nc2cccc(OC[C@@H](O)C(F)(F)F)n2)CC1 [Example 127]	< 100 nM	< 10	< 100 nM	–
CC(C)(C)NS(=O)(=O)c1cccc(NC(=O)c2ccc(NS(=O)(=O)C(C)(C)C)cc2N2CC[Si](C)(C)CC2)c1 [Example 4, N-(3-(N-(tert-butyl)sulfamoyl)phenyl)-2-(4,4-dimethyl-1,4-azasilinan-1-yl)-4-((1,1-dimethylethyl)sulfonamido)benzamide]	–	< 10	500 to 1000 nM	100 to 500 nM
Cc1cc(NC(=O)c2ccc(NS(=O)(=O)[C@@H](C)CO)cc2N2CC[Si](C)(C)CC2)nc(N2CCC(F)(F)CC2)n1 [Example 112]	100 to 500 nM	≥ 10	< 100 nM	–
Cc1cc(NC(=O)c2ccc(NS(=O)(=O)CCO)cc2N2CC[C@]3(C)C[C@@H]3C2)nc(N2CCC(F)(F)CC2)n1 [Example 35]	–	< 10	< 100 nM	100 to 500 nM
C[Si]1(C)CCN(c2cc(NS(=O)(=O)CCO)ccc2C(=O)Nc2ccnc(OCCC(F)(F)F)n2)CC1 [Example 10]	–	≥ 10	< 100 nM	500 to 1000 nM
C[Si]1(C)CCN(c2cc(NS(=O)(=O)CCO)ccc2C(=O)Nc2cccc(OCCC(F)(F)F)n2)CC1 [Example 16]	–	< 10	< 100 nM	< 100 nM
Cc1cc(NC(=O)c2ccc(NS(=O)(=O)NCCO)cc2N2CC[Si](C)(C)CC2)nc(N2CCC(F)(F)CC2)n1 [Example 117]	100 to 500 nM	< 10	100 to 500 nM	–
C[C@H]1CN(c2cccc(NC(=O)c3ccc(NS(=O)(=O)CCO)cc3N3CC[Si](C)(C)CC3)n2)CCO1 [Example 17]	–	≥ 10	< 100 nM	< 100 nM
